Measured values as given in patent US20170281507A1, “Peptides and Their Use in the Treatment of Skin” (AVON PRODUCTS, INC., priority 2014, published 2017).
Peptide text beside a SMILES is read from it.

Tested on: Human dermal fibroblast cells
Assay: Hyaluronic acid (HA) production in human dermal fibroblast cells, HA ELISA of the media
Assay type: cell-based
Conditions: percent change of HA production relative to vehicle control, peptide concentration 0.001%, 48h treatment in DMEM media without FBS, secreted HA in media
Experimental: Human dermal fibroblast cells were grown in a 96 well plate in DMEM media (available from Corning, N.Y.) supplemented with 10% Fetal Bovine Serum (FBS) and L-glutamine (0.07×10^5 cells/plate). After reaching about 75% confluence, cells were transferred into DMEM media without FBS and incubated for 4-6 hours. Next, cells were treated with peptide of Formula I at 0.00001%, 0.0001%, 0.001% final concentration in DMEM media without FBS for 48h. After treatment the media were collected, and cell viability was measured using MTT. Amount of secreted Hyaluronic Acid (HA) was tested in the media using HA Elisa kit (available from Corgenix, Broomfield, Colo.).
Results are summarized in Table 1 below as percent change of HA production relative to vehicle control: […]

Q: Which results are given for `CC(N)C(=O)NC(CCC(=O)O)C(=O)NC(CS)C(=O)NC(CCCCN)C(=O)O` (stereo not drawn) [AECK (SEQ ID NO: 1), Ala-Glu-Cys-Lys] (H-AECK-OH; configuration not given here)?
A: Increase in HA Production: +90-150%; Increase in HA Production (listed as peptide of Formula I): 90-150%
